Measurements taken from patent US20080274544A1, “Promotor for Introducing Extracellular Substance into Mammalian Ovum and Introduction Method” (priority 2005, published 2008).
“Also recorded” adds a separate entry of the source.

Assays:
[1] = test system: mouse unfertilized oocytes with zona pellucida; assay: In vitro fertilization of oocytes with zona pellucida, fertilization efficiency; format: cell-based
Description: (§1) • (1) Mice of eight week-old or older were purchased and made adapted to grow environment for 1 week before use. PMS (Serotoropin exclusive to animal, manufactured by ASUKA Pharmaceutical) was injected in an amount of 0.1 ml into the abdominal cavity of the mouse at 8:00 pm. • (2) 48 hr later, HCG (Gonadotropin exclusive to animal, manufactured by ASUKA Pharmaceutical) was injected in an amount of 0.1 ml into the abdominal cavity. • (3) Mice were euthanized the next day (14 to 16 hr after HCG injection), and the ampulla of oviduct was removed. An oocyte surrounded by cumulus cells was collected and cultured in a (100 μL) drop of TYH medium. • (4) Cumulus cells were removed by hyaluronidase (300 μg/mL) treatment, then the oocyte was cultured in TYH medium for 3 hr. In the case of conducting removal of zona pellucida, oocyte zona pellucida was removed by an acid Tyrode's solution treatment followed by culturing the oocyte in TYH medium for 3 hr. 2. Treatment with a Tubulin-Polymerization Inhibitor
(§2) The collected unfertilized oocyte of the mice was treated by using vinblastine (VB) as a tubulin-polymerization inhibitor. As controls, an oocyte treated with paclitaxel (Pac; Brand Name: taxol), tubulin-polymerization promoter, and an untreated oocyte (control) were used. Vinblastine (VB) treatment was conducted by culturing the oocyte in 20 μM of vinblastine solution (TYH medium) for 1 hr, while paclitaxel (Pac) treatment was conducted by culturing the oocyte in 10 μM of paclitaxelel (Pac) solution (TYH medium) similarly for 1 hr.
The mouse unfertilized oocyte was treated with vinblastine (VB), a tubulin-polymerization inhibitor, and in vitro fertilization was conducted with mouse sperm. As controls, an unfertilized oocyte treated with paclitaxel (Pac; Brand Name: taxol), tubulin-polymerization promoter, and an untreated oocyte (control) were used. […]

[2] = test system: zona pellucida-free mouse unfertilized oocytes; assay: In vitro fertilization of zona pellucida-free oocytes, sperm-oocyte fusion; format: cell-based; conditions: for number of sperm which fused with the oocytes: zona pellucida-free oocytes, 1 hr after insemination, oocytes cultured 1 hr in 20 μM vinblastine or 10 μM paclitaxel, compared with untreated control (FIG. 1)
Description: as §1, §2
The mouse unfertilized oocyte was treated with vinblastine (VB), a tubulin-polymerization inhibitor, and in vitro fertilization was conducted with mouse sperm. […]
(In the case where zona pellucida-free oocytes were use): To quantify sperm-oocyte fusion efficiency, zona pellucida-free mouse unfertilized oocytes were treated with vinblastine (VB), a tubulin-polymerization inhibitor, or paclitaxel (Pac), tubulin-polymerization promoter, or left untreated (control). […]

SMILES | increase of fertilization efficiency compared to untreated oocytes ([1]; 2-cell-stage oocytes, oocytes cultured 1 hr in 20 μM vinblastine (FIG. 2)) | fusion efficiency of oocytes treated with anti-mouse CD9 antibody having a fusion-inhibitory effect ([1]; vinblastine treatment together with anti-mouse CD9 antibody) | fusion of immature oocytes with sperm ([1]; vinblastine-treated immature oocytes) | number of sperm which fused with the oocytes [2] | sperm-oocyte membrane fusion ([2]; mouse unfertilized oocyte treated with tubulin-polymerization promoter)
CC[C@]1(O)C[C@@H]2CN(CCc3c([nH]c4ccccc34)[C@@](C(=O)OC)(c3cc4c(cc3OC)N(C)[C@H]3[C@@](O)(C(=O)OC)[C@H](OC(C)=O)[C@]5(CC)C=CCN6CC[C@]43[C@@H]65)C2)C1 [vinblastine] | 20% | increased | could be fused with sperm; also recorded: could fuse with sperm | largest number | 
CC(=O)O[C@H]1C(=O)[C@@]2(C)[C@H]([C@H](OC(=O)c3ccccc3)[C@]3(O)C[C@H](OC(=O)[C@H](O)[C@@H](NC(=O)c4ccccc4)c4ccccc4)C(C)=C1C3(C)C)[C@]1(OC(C)=O)CO[C@@H]1C[C@@H]2O [paclitaxel] |  |  |  | not fused | inhibited
